Values of other authors in US20140134693A1, “Eliminating the Need of Acidification in Bioethanol Production” (Anitox Corporation, priority 2012, published 2014).
Read-outs that look alike come from different tables or passages of the source.

Experiments:
[1] = tested on: Lactobacillus; settings: 600 mg/L
[2] = tested on: Lactobacillus
[3] = tested on: bacteria; settings: sugarcane ethanol production
[4] = tested on: Most bacteria, with the exception of Lactobacillus casei; settings: ethanol fermentation process

For `O=C(O)CCC(=O)O` [Succinic acid], the “reduction of Lactobacillus levels” value [1] is listed as 78% and the “reduction of Lactobacillus levels” value ([1]; in the presence of ethanol) is listed as “up to 96%”.
For `NC(N)=O.OO` [Urea hydrogen peroxide], the “bactericidal activity against Lactobacillus (in words)” value [2] is given as “excellent bactericidal activity”.
For `CC1(C)S[C@@H]2[C@H](NC(=O)[C@H](N)c3ccccc3)C(=O)N2[C@H]1C(=O)O` [ampicillin], the bacteria resistant [3] is listed as 97%.
For `OO` [hydrogen peroxide], the concentration controlling bacteria [4] is given as 1 to 10 mM.
For penicillin, the bacteria resistant [3] is given as 97%.
In the case of virginiamycin, the bacteria resistant [3] is given as 48%.
